Test results from US7737123B2, “Multidrug resistant anticancer anthracyclines” (The Ohio State University Research Foundation, priority 2005, dated 2010).
pIC50: −log10 of the molar value. Read-outs that look alike come from different tables or passages of the source.

Experiments:
[1] = tested on: colon cancer cell line SW620 cells; experiment: Cytotoxicity in colon cancer cell line SW620 with MTS assay; assay type: cell-based; details: for pIC50: read-out: IC50 in SW620
Experimental: The cytotoxicity of compounds DNR-1-DNR-6 prepared in this manner was examined in colon cancer cell line SW620 cells with MTS assay. […] Then 20 μL MTS/PMS assay solution was added to each well and the absorbance was recorded. The cell survival was calculated as percentage of cell control group without treatment. The IC50 of all these compounds against colon cancer cell line SW620 are summarized in Table 1 and graphically illustrated in FIGS. 1A and 1B. These IC50 values were calculated by WinNonlin 4.1 (Pharsight) from the dose-response curves of percentage of cell growth with the model: E=Emax−(Emax−E0)×[C/(C+EC50)].

[2] = tested on: doxorubicin-resistant K562/Dox cells; experiment: Cytotoxicity in doxorubicin-resistant K562/Dox cells by MTS assay; assay type: cell-based; details: for pIC50: Homo sapiens, drug-resistant K562/Dox, MTS assay, 72 hours; for DRI (drug resistance index): ratio of IC50 in drug-resistant cells over IC50 in drug-sensitive cells
Experimental: The drug-resistant K562/Dox cell line was induced by doxorubicin treatment. The cell line was cultured in 0.1 μM doxorubicin one week/per month, followed by 10 days culture without doxrubicin before experiment. This is to maintain similar high levels of P-gp expression in each experiment. […] Then 20 μL MTS/PMS assay solution was added to each well and the absorbance was recorded. The cell survival was calculated as percentage of cell control group without treatment. […] The IC50 values were calculated by WinNonlin 4.1 (Pharsight) from the dose-response curves of percentage of cell growth with the model: E=Emax−(Emax−E0)×[C/(C+EC50)]

[3] = tested on: leukemia cells K562; experiment: Cytotoxicity in drug-sensitive leukemia K562 cells by MTS assay; assay type: cell-based; details: Homo sapiens; for pIC50: drug-sensitive K562, MTS assay, 72 hours, read-out: IC50 in K562; for IC50: drug-sensitive K562, values given in text in nM, read-out: IC50 against K562
Experimental: The drug resistance index (DRI, ratio of IC50 in drug-resistant cells over IC50 in drug-sensitive cells) is a good indicator of drug's ability to overcome resistance.
The anticancer activities of Compounds 1-6 were examined in leukemia cells K562 and doxorubicin-resistant K562/Dox cells by MTS assay. The drug-resistant K562/Dox cell line was induced by doxorubicin treatment. The cell line was cultured in 0.1 μM doxorubicin one week/per month, followed by 10 days culture without doxrubicin before experiment. This is to maintain similar high levels of P-gp expression in each experiment. In drug-resistant K562 cells, MDR1 mRNA was induced by 600-fold higher than drug-sensitive K562 cells as measured by real-time PCR (data not shown). […] Then 20 μL MTS/PMS assay solution was added to each well and the absorbance was recorded. The cell survival was calculated as percentage of cell control group without treatment. The anticancer activities are summarized in Table 2 and graphically illustrated in FIG. 5. The IC50 values were calculated by WinNonlin 4.1 (Pharsight) from the dose-response curves of percentage of cell growth with the model: E=Emax−(Emax−E0)×[C/(C+EC50)]

[4] = target: T1, P-gp (Homo sapiens, UniProt P08183); experiment: P-gp export (uptake and efflux by FACS) in K562/Dox cells with or without CsA; assay type: cell-based; details: CsA 5 μM, 30 min incubation
T1 construct: endogenous in cells; host or cells: K562/Dox (doxorubicin-induced drug-resistant K562 leukemia cells)

[5] = tested on: K562/Dox; assay type: cell-based
[6] = tested on: drug-resistant leukemia K562/Dox xenograft; experiment: K562/Dox leukemia xenograft mouse model; details: for tumor growth inhibition (in words): 5 or 10 mg/kg intraperitoneally twice per week for three weeks, one week after dose
Experimental: In this animal model, 10^7 drug-resistant leukemia K562/Dox was injected subcutaneously into nude mice. […] The tumor volume was measured every three days.

[7] = 10 mg/kg twice per week for three weeks

T1 sequence (P08183 whole entry): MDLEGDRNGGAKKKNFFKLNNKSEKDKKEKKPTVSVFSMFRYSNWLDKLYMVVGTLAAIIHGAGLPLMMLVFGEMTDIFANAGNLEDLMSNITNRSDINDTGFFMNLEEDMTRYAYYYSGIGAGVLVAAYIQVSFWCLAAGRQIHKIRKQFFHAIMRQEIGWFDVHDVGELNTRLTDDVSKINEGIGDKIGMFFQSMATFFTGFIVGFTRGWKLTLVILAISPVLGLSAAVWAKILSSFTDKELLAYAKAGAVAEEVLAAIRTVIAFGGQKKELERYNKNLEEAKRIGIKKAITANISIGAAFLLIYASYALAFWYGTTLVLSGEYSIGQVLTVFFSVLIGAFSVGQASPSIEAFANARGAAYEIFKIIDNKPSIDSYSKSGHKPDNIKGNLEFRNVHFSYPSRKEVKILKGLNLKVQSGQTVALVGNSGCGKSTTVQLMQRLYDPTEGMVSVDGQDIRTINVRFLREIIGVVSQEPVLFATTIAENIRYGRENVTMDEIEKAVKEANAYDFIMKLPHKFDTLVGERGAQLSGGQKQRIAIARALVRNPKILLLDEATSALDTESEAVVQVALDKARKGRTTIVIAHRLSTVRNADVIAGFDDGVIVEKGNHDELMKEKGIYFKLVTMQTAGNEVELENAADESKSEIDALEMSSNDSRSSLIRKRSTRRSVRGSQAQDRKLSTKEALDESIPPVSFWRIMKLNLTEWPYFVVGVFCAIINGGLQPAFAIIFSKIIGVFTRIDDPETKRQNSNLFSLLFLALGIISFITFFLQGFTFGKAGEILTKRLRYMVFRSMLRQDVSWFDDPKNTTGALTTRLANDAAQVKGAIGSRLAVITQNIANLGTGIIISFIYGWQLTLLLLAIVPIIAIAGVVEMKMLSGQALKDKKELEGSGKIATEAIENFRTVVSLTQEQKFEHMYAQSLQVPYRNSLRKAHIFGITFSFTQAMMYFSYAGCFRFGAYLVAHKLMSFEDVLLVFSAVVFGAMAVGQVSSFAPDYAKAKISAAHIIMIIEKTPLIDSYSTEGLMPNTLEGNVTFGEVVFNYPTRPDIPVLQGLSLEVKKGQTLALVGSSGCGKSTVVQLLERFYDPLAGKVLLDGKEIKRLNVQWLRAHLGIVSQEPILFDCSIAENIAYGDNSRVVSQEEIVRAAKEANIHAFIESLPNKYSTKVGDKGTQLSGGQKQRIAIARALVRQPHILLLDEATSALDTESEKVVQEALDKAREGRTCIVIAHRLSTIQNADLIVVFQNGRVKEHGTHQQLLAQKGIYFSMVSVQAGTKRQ

COc1cccc2c1C(=O)c1c(O)c3c(c(O)c1C2=O)C[C@@](O)(C(C)=O)C[C@@H]3OC1CC(OC)C(O)C(C)O1 (stereo partly drawn) [DNR-4]
pIC50 ([1]; Homo sapiens, SW-620, 72 h): 6.98

COc1cccc2c1C(=O)c1c(O)c3c(c(O)c1C2=O)C[C@@](O)(C(C)=O)C[C@@H]3O [DNR-A, reference compound]
fold lower cytotoxicity than compounds DNR-1-DNR-6 [1]: 70-100 fold | pIC50 ([1]; MTS assay, 72 hours): < 5.70

COc1cccc2c1C(=O)c1c(O)c3c(c(O)c1C2=O)C[C@@](O)(C(C)=O)C[C@@H]3O[C@H]1C[C@H](N)[C@H](O)[C@H](C)O1 [DNR, daunorubicin, reference compound]
pIC50 ([2]; K562, 72 h): < 5.30 | pIC50 [3]: 7.82 | IC50 [3]: 15 nM | effect of P-gp inhibitor (CsA) on retention of drug in K562/Dox cells, uptake and efflux phases [4]: significantly inhibited the drug efflux and increased drug accumulation | cell killing effect in combination with CsA [5]: more than 70% | cell killing effect, drug alone [5]: 30% | pIC50 ([1]; Homo sapiens, SW-620, 72 h): 7.48 | time by which 50% mice died ([6]; 10 mg/kg): < 20 days | body weight decrease [6, 7]: more than 70% | time by which all mice died ([6]; 10 mg/kg, due to both tumor growth and drug toxicity): < 30 days | tumor growth inhibition (in words) [6]: significantly inhibited tumor growth

COc1cccc2c1C(=O)c1c(O)c3c(c(O)c1C2=O)C[C@@](O)(C(C)=O)C[C@@H]3OC1CC(N=[N+]=[N-])C(OC2CC(N=[N+]=[N-])C(O)C(C)O2)C(C)O1 (stereo partly drawn) [Compound 6]
pIC50 ([2]; K562, 72 h): 5.19 | DRI (drug resistance index) [2]: 5.64 | pIC50 [3]: 5.95

COc1cccc2c1C(=O)c1c(O)c3c(c(O)c1C2=O)C[C@@](O)(C(C)=O)C[C@@H]3OC1CCC(O)C(C)O1 (stereo partly drawn) [DNR-5]
pIC50 ([1]; Homo sapiens, SW-620, 72 h): 6.46

COc1cccc2c1C(=O)c1c(O)c3c(c(O)c1C2=O)C[C@@](O)(C(C)=O)C[C@@H]3OC1CC(N=[N+]=[N-])C(OC2CC(C)(OC)C(O)C(C)O2)C(C)O1 (stereo partly drawn) [Compound 4]
pIC50 ([2]; K562, 72 h): 4.92 | DRI (drug resistance index) [2]: 53.64 | pIC50 [3]: 6.65 | IC50 [3]: 200 to 1100 nM

COc1cccc2c1C(=O)c1c(O)c3c(c(O)c1C2=O)C[C@@](O)(C(C)=O)C[C@@H]3OC1OC(C)C(O)C(O)C1O (stereo partly drawn) [DNR-1]
pIC50 ([1]; Homo sapiens, SW-620, 72 h): 6.58

COc1cccc2c1C(=O)c1c(O)c3c(c(O)c1C2=O)C[C@@](O)(C(C)=O)C[C@@H]3OC1CCC(N=[N+]=[N-])C(C)O1 (stereo partly drawn) [DNR-6]
cytotoxicity in SW620 (in words) ([1]; FIG. 1B): lost its cytotoxicity | pIC50 ([1]; Homo sapiens, SW-620, 72 h): < 6.00

COc1cccc2c1C(=O)c1c(O)c3c(c(O)c1C2=O)C[C@@](O)(C(C)=O)C[C@@H]3OC1CC(C)(OC)C(O)C(C)O1 (stereo partly drawn) [DNR-3]
pIC50 ([1]; Homo sapiens, SW-620, 72 h): < 6.00

COc1cccc2c1C(=O)c1c(O)c3c(c(O)c1C2=O)C[C@@](O)(C(C)=O)C[C@@H]3OC1CC(N=[N+]=[N-])C(OC2CC(O)C(O)C(C)O2)C(C)O1 (stereo partly drawn) [Compound 2]
pIC50 ([2]; K562, 72 h): 5.26 | DRI (drug resistance index) [2]: 18.94 | pIC50 [3]: 6.54 | IC50 [3]: 200 to 1100 nM

COc1cccc2c1C(=O)c1c(O)c3c(c(O)c1C2=O)C[C@@](O)(C(C)=O)C[C@@H]3OC1CC(N=[N+]=[N-])C(O)C(C)O1 (stereo partly drawn) [ADNR, 3′-azido-deamino-daunorubicin]
fold more active than DNR against drug-resistant K562 cells [2]: at least 5 fold | pIC50 [2]: 6.00 | DRI (drug resistance index) [2]: 13 | DRI (drug resistance index) ([2]; listed as 8): 13.3 | fold lower DRI than that of DNR ([2]; versus DNR): 25 fold | pIC50 [3]: 7.12 | cell killing effect, drug alone ([5]; 1 μM, K562/Dox, without CsA): more than 50% | cell killing effect in combination with CsA ([5]; drug 1 μM plus CsA 5 μM, K562/Dox): did not change the cell killing effects | fold higher maximum growth inhibition rate than DNR ([6]; 5 mg/kg): 2.5 fold | body weight decrease [6, 7]: did not show any significant body weight change | survival after 50 days [6, 7]: 100% | tumor growth inhibition (in words) [6]: significantly inhibited tumor growth

COc1cccc2c1C(=O)c1c(O)c3c(c(O)c1C2=O)C[C@@](O)(C(C)=O)C[C@@H]3OC1CC(N=[N+]=[N-])C(OC2CCC(O)C(C)O2)C(C)O1 (stereo partly drawn) [Compound 1]
DRI (drug resistance index) [2]: 2.45 | pIC50 [3]: 6.10 | IC50 [3]: 200 to 1100 nM
